Reference: patent publication US11052098B2, “Composition containing araloside for external application to skin” (Amorepacific Corporation, priority 2015, dated 2021)

Tests used:
[1] = test system: keratin 10; assay: Recovery of keratin 10 marker gene expression in fine dust-treated keratinocytes (quantitative real-time PCR); assay type: cell-based; settings: Human neonatal epidermal keratinocytes; 100 ppm fine dust 24 hours, then 50 ppm araloside for 5 days; FIG. 1; compared to fine dust only and untreated group
Experimental: (§1) Human neonatal epidermal keratinocytes (HEK; Lonza, NHEK-Neo-Neonatal Normal. Human Epidermal Keratinocytes, Pooled) were dispensed in medium (KBM-gold, Lonza) in a 6-well plate at a density of 1×10^5 cells per well and cultured at 37° C. for 24 hours. 100 ppm of fine dust was treated in the well and subjected to stimulation for 24 hours, which was then treated with medium (KBM-gold, Lonza) containing 50 ppm each of […] and araloside X and incubated at 37° C. for 5 days. Then, RNA was extracted from the HEK cells incubated for 5 days using an RNeasy mini kit (Qiagen), and then a cDNA was synthesized through an RT-PCR process using a Superscript III kit (Invitrogen). To confirm the expression level of keratin 1 and keratin 10 genes, a probe (TaqMan™ fluorogenic probe, Hs00196158_m1, Hs00166289_m1) was used to conduct the quantitative real-time PCR process and observe the expression behavior of keratin 1 and keratin. 10. The control group used an untreated group not treated with fine dust and also not treated with araloside V, araloside VII and araloside X; and fine dust-treated group treated with fine dust but not, treated with araloside V, araloside VII and araloside X.

[2] = test system: IL8; assay: IL8 protein production in fine dust-stimulated human fibroblasts (ELISA); assay type: cell-based; settings: 100 ppm fine dust 24 hours, then sample 50 ppm for 48 hours, culture solution ELISA, fine dust only = 246
Experimental: (§2) Human fibroblasts (PromoCell, Germany) were inoculated in a 6-well plate at a concentration of 1×10^5 cells, and cultured in an incubator (37° C., 5% CO2) for 24 hours. 100 ppm of fine dust was treated in the well and subjected to stimulation for 24 hours, which was then treated with medium containing 50 ppm each of araloside V, araloside VII and araloside X and allowed to react for 48 hours. After completion of the reaction, the culture solution was collected and subjected to ELISA analysis. At this time, α-bisabolol, a substance frequently used as an anti-inflammatory and irritation-mitigating agent, was used as a control group. Measurement of the production amount of IL8 and IL1B proteins was carried out using a ThermoFisher's kit, and experiments were conducted according to the method described in the company's manual.

[3] = test system: IL1B; assay: IL1B protein production in fine dust-stimulated human fibroblasts (ELISA); assay type: cell-based; settings: 100 ppm fine dust 24 hours, then sample 50 ppm for 48 hours, culture solution ELISA, fine dust only = 311
Experimental: as §2

[4] = test system: Reactive Oxygen Species (ROS); assay: Inhibitory effect on reactive oxygen species (ROS) production in fine dust-stimulated keratinocytes (DCF-DA fluorescence); assay type: cell-based; settings: human keratinocytes; sample 50 ppm for 2 hours, then treated with 100 ppm of fine dust; vehicle control = 100, fine dust only = 384
Experimental: 5×10^4 Keratinocytes isolated from human epidermal tissue were added to each well of a 24-well plate and allowed to adhere for 24 hours. Then, […] and araloside X were treated at 50 ppm, respectively. At this time, for comparison, a control group (untreated group) was not treated with araloside V, araloside VII and araloside X, and a positive control group was treated with a known antioxidant ascorbic acid. After 2 hours, the culture solution was removed, and then 100 μl of phosphate buffered saline (PBS) containing 100 ppm of fine dust was added to each well. Then, the amount of active oxygen species increased by fine dust stimulation was quantified. The amount of ROS was quantified with reference to Tan's method of measuring the fluorescence of DCF-DA (dichlorofluorescin diacetate) oxidized by ROS (Tan et al., 1998, J. Cell Biol. Vol. 141, pp 1423-1432).

[5] = test system: keratin 1; assay: Recovery of keratin 1 marker gene expression in fine dust-treated keratinocytes (quantitative real-time PCR); assay type: cell-based; settings: Human neonatal epidermal keratinocytes; 100 ppm fine dust 24 hours, then 50 ppm araloside for 5 days; FIG. 1; compared to fine dust only and untreated group
Experimental: as §1

[6] = test system: MMP-1; assay: MMP-1 inhibitory effect in fine dust- and UVB-treated Hs68 fibroblasts (MMP-1 assay kit); assay type: cell-based, Human; settings: 100 ppm fine dust 24 hours, UVB 30 mJ/M^2, then 50 ppm araloside for 48 hours, FIG. 2, compared to fine dust only and untreated group
Experimental: Human neonatal fibroblast HS68 was purchased from Cascade Biologics (Invitrogen, USA) and used. Hs68 was cultured using DMEM medium supplemented with 10% FBS (fetal bovine serum), 50 U/ml of penacillin and 50 μg/ml of streptomycin. Cells were cultured under the conditions of 37° C., 5% CO2. The Hs68 was added to a 12-well plate at a concentration of 7.5×10^4 cells/well and cultured overnight. On the next day, the medium was replaced with FBS-free medium having a fine dust concentration of 100 ppm and cultured for 24 hours. After irradiating with UVB 30 mJ/M^2, the araloside V, araloside VII, and araloside X were treated at a concentration of 50 ppm for 48 hours, respectively. After culture, the medium was collected and the production amount of MMP-1 was measured using an MMP-1 assay kit (GE healthcare). The control group used an untreated group not treated with fine dust and also not treated with araloside V, araloside VII and araloside X; and a fine dust-treated group treated with fine dust but not treated with araloside V, araloside VII and araloside X.

| Molecule | expression of keratin 10 gene [1] | IL8 (production amount of protein) [2] [pg/mL] | IL1B (production amount of protein) [3] [pg/mL] | amount of ROS, ratio to control group treated with only vehicle (=100) [4] | expression of keratin 1 gene [5] | MMP-1 activity (production amount of MMP-1) [6] |
| --- | --- | --- | --- | --- | --- | --- |
| CC1(C)CC[C@]2(C(=O)O[C@@H]3O[C@H](CO)[C@@H](O)[C@H](O)[C@H]3O)CC[C@]3(C)C(=CC[C@@H]4[C@@]5(C)CC[C@H](O[C@@H]6O[C@H](CO)[C@@H](O)[C@H](O[C@@H]7O[C@H](CO)[C@@H](O)[C@H](O)[C@H]7O)[C@H]6O[C@@H]6O[C@H](CO)[C@@H](O)[C@H](O)[C@H]6O)[C@@](C)(CO)[C@@H]5CC[C@]43C)[C@@H]2C1 [araloside VII] | a level equal to or higher than that in the untreated group | 184 | 256 | 105 | a level equal to or higher than that in the untreated group | to about the level of MMP-1 activity in the untreated (control) group |
| CC1(C)CC[C@]2(C(=O)O[C@@H]3O[C@H](CO)[C@@H](O)[C@H](O)[C@H]3O)CC[C@]3(C)C(=CC[C@@H]4[C@@]5(C)CC[C@H](O[C@H]6O[C@H](CO)[C@@H](O)[C@@H](O[C@@H]7O[C@H](CO)[C@@H](O)[C@H](O)[C@H]7O)[C@H]6O[C@@H]6O[C@H](CO)[C@@H](O)[C@H](O)[C@H]6O)C(C)(C)[C@@H]5CC[C@]43C)[C@@H]2C1 [araloside V] | a level equal to or higher than that in the untreated group | 189 | 243 | 110 | a level equal to or higher than that in the untreated group | to about the level of MMP-1 activity in the untreated (control) group |
| CC1(C)CC[C@]2(C(=O)O[C@@H]3O[C@H](CO)[C@@H](O)[C@H](O)[C@H]3O)CC[C@]3(C)C(=CC[C@@H]4[C@@]5(C)CC[C@H](O[C@@H]6O[C@H](CO)[C@@H](O)[C@H](O[C@@H]7O[C@H](CO)[C@@H](O)[C@H](O[C@@H]8O[C@H](CO)[C@@H](O)[C@H](O)[C@H]8O)[C@H]7O)[C@H]6O[C@@H]6O[C@H](CO)[C@@H](O)[C@H](O)[C@H]6O)C(C)(C)[C@@H]5CC[C@]43C)[C@@H]2C1 [araloside X] | a level equal to or higher than that in the untreated group | 187 | 252 | 102 | a level equal to or higher than that in the untreated group | to about the level of MMP-1 activity in the untreated (control) group |
| O=C1O[C@H]([C@@H](O)CO)C(O)=C1O [ascorbic acid, reference compound] | – | – | – | 200 | – | – |
| α-bisabolol [reference compound] | – | 180 | 214 | – | – | – |
